pEC50: −log10 of the molar value.
assay: RSV-A Assay: The description is Japanese.

| Structure (SMILES) | EC50 | pEC50 |
| --- | --- | --- |
| O=C1Nc2ccccc2C(c2ccccc2)=N[C@@H]1Nc1nnc(-c2ccc(C(F)(F)F)nc2N2CC3CCC(C2)O3)o1 | in the range around 600 nM | – |
| CN1CCN(c2ncccc2-c2nnc(NC3N=C(c4ccccc4)c4ccccc4NC3=O)o2)CC1 (centres undefined) | – | < 6.10 |
| O=C1Nc2ccccc2C(c2ccccc2)=NC1Nc1nnc(-c2ccccc2-n2cccn2)o1 (centres undefined) | – | < 6.10 |
| O=C1Nc2ccccc2C(c2ccccc2)=NC1Nc1nnc(-c2cccnc2N2C[C@@H]3C[C@H]2CO3)o1 (some centres undefined) | – | < 6.10 |
| O=C1Nc2ccccc2C(c2ccccc2)=NC1Nc1nnc(-c2cccnc2N2C3CCC2COC3)o1 (centres undefined) | – | < 6.10 |
| N#CC1CCN(c2ncccc2-c2nnc(NC3N=C(c4ccccc4)c4ccccc4NC3=O)o2)CC1 (centres undefined) | – | < 6.10 |
| COC1CN(c2cc(C(F)(F)F)cnc2-c2nnc(N[C@H]3N=C(c4ccccc4)c4ccccc4NC3=O)o2)C1 | – | < 6.10 |
| O=C1Nc2ccccc2C(c2ccccc2)=NC1Nc1nnc(-c2ccc(-n3cncn3)cc2)o1 (centres undefined) | in the range around 600 nM | – |
| C[C@@H]1COCCN1c1cc(C#N)ccc1-c1nnc(N[C@H]2N=C(c3ccccc3)c3ccccc3NC2=O)o1 | – | > 6.40 |
| O=C1Nc2ccccc2C(c2ccccc2)=NC1Nc1nnc(-c2ccccc2-c2ccncc2)o1 (centres undefined) | – | < 6.10 |
| Cc1ccc(-c2nnc(N[C@H]3N=C(c4ccccc4)c4ccccc4NC3=O)o2)c(N2CC3CCC(C2)O3)n1 | – | > 6.40 |
| Cc1ccc(-c2nnc(N[C@H]3N=C(c4ccccc4)c4ccccc4NC3=O)o2)c(N2C3CCC2COC3)n1 | – | > 6.40 |
| C[C@H]1COCCN1c1ncccc1-c1nnc(NC2N=C(c3ccccc3)c3ccccc3NC2=O)o1 (some centres undefined) | – | < 6.10 |
| O=C1Nc2ccccc2C(c2ccccc2)=N[C@@H]1Nc1nnc(-c2cccnc2N2CCn3ncnc3C2)o1 | – | < 6.10 |
| O=C1Nc2ccccc2C(c2ccccc2)=N[C@@H]1Nc1nnc(-c2ncc(C(F)(F)F)cc2N2CCC(F)CC2)o1 | – | < 6.10 |
| O=C1Nc2ccccc2C(c2ccccc2)=N[C@@H]1Nc1nnc(-c2ncc(C(F)(F)F)cc2N2C3CCC2COC3)o1 | – | > 6.40 |
| CN1CCN(c2ccc(-c3nnc(NC4N=C(c5ccccc5)c5ccccc5NC4=O)o3)cc2)CC1 (centres undefined) | – | < 6.10 |
| C[C@@H]1COCCN1c1ncccc1-c1nnc(NC2N=C(c3ccccc3)c3ccccc3NC2=O)o1 (some centres undefined) | – | > 6.40 |
| CC1(C)CC(c2nnc(NC3N=C(c4ccccc4)c4ccccc4NC3=O)o2)C1 (centres undefined) | – | < 6.10 |
| O=C1Nc2ccccc2C(c2ccccc2)=NC1Nc1nnc(-c2ccc(-n3cncn3)c(F)c2)o1 (centres undefined) | in the range around 600 nM | – |
| CN[C@H](c1ccccc1)c1nnc(NC2N=C(c3ccccc3)c3ccccc3NC2=O)o1 (some centres undefined) | – | < 6.10 |
| O=C1Nc2ccccc2C(c2ccccc2)=NC1Nc1nnc(C2CCNC2)o1 (centres undefined) | – | < 6.10 |
| O=C1Nc2ccccc2C(c2ccccc2)=NC1Nc1nnc([C@@H]2CCCN2C2CCNCC2)o1 (some centres undefined) | – | < 6.10 |

| Structure (SMILES) | EC50 | pEC50 |
| --- | --- | --- |
| CN(C)CCOc1ccccc1-c1nnc(NC2N=C(c3ccccc3)c3ccccc3NC2=O)o1 (centres undefined) | – | < 6.10 |
| O=C1Nc2ccccc2C(c2ccccc2)=NC1Nc1nnc([C@@H]2CCCO2)o1 (some centres undefined) | – | < 6.10 |
| O=C1Nc2ccccc2C(c2ccccc2)=NC1Nc1nnc(C2CC(F)(F)C2)o1 (centres undefined) | – | < 6.10 |
| O=C1Nc2ccccc2C(c2ccccc2)=N[C@@H]1Nc1nnc(-c2ccc(C(F)(F)F)nc2N2C3CCC2COC3)o1 | – | < 6.10 |
| COC(=O)c1nc(C)sc1N1CCOCC1 | – | > 6.40 |
| O=C1Nc2ccccc2C(c2ccccc2)=NC1Nc1nnc(-c2ccc(-n3ccnc3)nc2)o1 (centres undefined) | – | < 6.10 |
| CO[C@@H]1CCN(c2ccccc2-c2nnc(NC3N=C(c4ccccc4)c4ccccc4NC3=O)o2)C1 (some centres undefined) | – | < 6.10 |
| O=C1Nc2ccccc2C(c2ccccc2)=NC1Nc1nnc(-c2cccnc2N2CCCC(F)(F)C2)o1 (centres undefined) | – | < 6.10 |
| CC1(c2nnc(NC3N=C(c4ccccc4)c4ccccc4NC3=O)o2)CCNC1 (centres undefined) | – | < 6.10 |
| O=C1Nc2ccccc2C(c2ccccc2)=N[C@@H]1Nc1nnc(-c2cccnc2N2CCOCC2)o1 | – | > 6.40 |
| Cc1cc(-c2nnc(NC3N=C(c4ccccc4)c4ccccc4NC3=O)o2)ccc1-n1cncn1 (centres undefined) | in the range around 600 nM | – |
| O=C1Nc2ccccc2C(c2ccccc2)=N[C@@H]1Nc1nnc(-c2ccc(N3C4CCC3COC4)cc2Cl)o1 | – | < 6.10 |
| N#Cc1ccc(-c2nnc(N[C@H]3N=C(c4ccccc4)c4ccccc4NC3=O)o2)c(N2C3CCC2COC3)c1 | – | > 6.40 |
| Cc1ccc(-c2nnc(N[C@H]3N=C(c4ccccc4)c4ccccc4NC3=O)o2)c(N2CCOC[C@H]2C)n1 | – | > 6.40 |
| O=C1Nc2ccccc2C(c2ccccc2)=NC1Nc1nnc(C2CC3(CCNCC3)C2)o1 (centres undefined) | – | < 6.10 |
| C[C@@H]1CN(c2cc(F)ccc2-c2nnc(N[C@H]3N=C(c4ccccc4)c4ccccc4NC3=O)o2)C[C@H](C)O1 | – | < 6.10 |
| COC1CN(c2ncccc2-c2nnc(NC3N=C(c4ccccc4)c4ccccc4NC3=O)o2)C1 (centres undefined) | – | < 6.10 |
| O=C1Nc2ccccc2C(c2ccccc2)=NC1Nc1nnc(-c2cccnc2N2CCC(F)CC2)o1 (centres undefined) | – | < 6.10 |
| C[C@@H]1CN(c2ncccc2-c2nnc(NC3N=C(c4ccccc4)c4ccccc4NC3=O)o2)CCO1 (some centres undefined) | – | < 6.10 |
| O=C1Nc2ccccc2C(c2ccccc2)=NC1Nc1nnc(CC(F)(F)F)o1 (centres undefined) | – | < 6.10 |
| O=C1Nc2ccccc2C(c2ccccc2)=NC1Nc1nnc(-c2ccc(-n3cncn3)nc2)o1 (centres undefined) | – | < 6.10 |
| O=C1Nc2ccccc2C(c2ccccc2)=NC1Nc1nnc(-c2cccnc2N2CCC(O)CC2)o1 (centres undefined) | – | < 6.10 |
| N#CC1CN(c2ncccc2-c2nnc(NC3N=C(c4ccccc4)c4ccccc4NC3=O)o2)C1 (centres undefined) | – | < 6.10 |

| Structure (SMILES) | EC50 | pEC50 |
| --- | --- | --- |
| CCOC(=O)c1ncc(C(F)(F)F)cc1-c1ccncc1 | – | < 6.10 |
| CN1CCC(N2CCC[C@H]2c2nnc(NC3N=C(c4ccccc4)c4ccccc4NC3=O)o2)CC1 (some centres undefined) | – | < 6.10 |
| CN1C(=O)C(Nc2nnc(-c3ccc(F)cc3)o2)N=C(c2ccccc2)c2ccccc21 (centres undefined) | – | < 6.10 |
| CC(C)(Cc1ccccc1)c1nnc(NC2N=C(c3ccccc3)c3ccccc3NC2=O)o1 (centres undefined) | – | < 6.10 |
| O=C1Nc2ccccc2C(c2ccccc2)=NC1Nc1nnc(-c2ccc(-n3cccn3)nc2)o1 (centres undefined) | – | < 6.10 |
| O=C1Nc2ccccc2C(c2ccccc2)=NC1Nc1nnc(-c2cccc(-n3ccnc3)c2)o1 (centres undefined) | – | < 6.10 |
| N#Cc1ccc(-c2nnc(N[C@H]3N=C(c4ccccc4)c4ccccc4NC3=O)o2)c(N2CC3CCC(C2)O3)c1 | – | > 6.40 |
| O=C1Nc2ccccc2C(c2ccccc2)=NC1Nc1nnc(-c2ccc(-n3cnnc3)cc2)o1 (centres undefined) | – | < 6.10 |
| COCCOc1ccccc1-c1nnc(NC2N=C(c3ccccc3)c3ccccc3NC2=O)o1 (centres undefined) | – | < 6.10 |
| O=C1Nc2ccccc2C(c2ccccc2)=NC1Nc1nnc(-c2cccnc2N2CC3CCC(C2)O3)o1 (centres undefined) | in the range around 600 nM | – |
| O=C1Nc2ccccc2C(c2ccccc2)=NC1Nc1nnc(C23CCN(CC2)CC3)o1 (centres undefined) | – | < 6.10 |
| C[C@@H]1CN(c2ccc(-c3nnc(N[C@H]4N=C(c5ccccc5)c5ccccc5NC4=O)o3)c(Cl)c2)C[C@H](C)O1 | – | < 6.10 |
| O=C1Nc2ccccc2C(c2ccccc2)=NC1Nc1nnc(C2(F)CC2)o1 (centres undefined) | – | < 6.10 |
| COc1cc(-c2nnc(NC3N=C(c4ccccc4)c4ccccc4NC3=O)o2)ccc1-n1cnc(C)c1 (centres undefined) | – | < 6.10 |
| O=C1Nc2ccccc2C(c2ccccc2)=N[C@@H]1Nc1nnc(-c2ccc(F)cc2N2CC3CCC(C2)O3)o1 | in the range around 600 nM | – |
| O=C1Nc2ccccc2C(c2ccccc2)=NC1Nc1nnc(C2CCOC2)o1 (centres undefined) | – | < 6.10 |
| COC1CCN(c2cc(C(F)(F)F)cnc2-c2nnc(N[C@H]3N=C(c4ccccc4)c4ccccc4NC3=O)o2)CC1 | – | < 6.10 |
| C[C@H]1CN(c2ncccc2-c2nnc(NC3N=C(c4ccccc4)c4ccccc4NC3=O)o2)CCO1 (some centres undefined) | in the range around 600 nM | – |
| O=C1Nc2ccccc2C(c2ccccc2)=NC1Nc1nnc(-c2cccnc2N2CC(F)(F)C2)o1 (centres undefined) | – | < 6.10 |
| C[C@@H]1CN(c2cc(C(F)(F)F)cnc2-c2nnc(N[C@H]3N=C(c4ccccc4)c4ccccc4NC3=O)o2)CCO1 | – | > 6.40 |
| CN(c1nnc(-c2ccc(F)cc2)o1)C1N=C(c2ccccc2)c2ccccc2NC1=O (centres undefined) | – | < 6.10 |
| O=C1Nc2ccccc2C(c2ccccc2)=NC1Nc1nnc(-c2cccnc2N2C[C@H]3COC[C@H]3C2)o1 (some centres undefined) | – | < 6.10 |
| CC1(C)C[C@@H]1c1nnc(NC2N=C(c3ccccc3)c3ccccc3NC2=O)o1 (some centres undefined) | – | < 6.10 |

| Structure (SMILES) | EC50 | pEC50 |
| --- | --- | --- |
| CO[C@H]1CCN(c2ncccc2-c2nnc(NC3N=C(c4ccccc4)c4ccccc4NC3=O)o2)C1 (some centres undefined) | – | < 6.10 |
| CC1(Nc2nnc(-c3ccc(F)cc3)o2)N=C(c2ccccc2)c2ccccc2NC1=O (centres undefined) | – | < 6.10 |
| O=C1Nc2ccccc2C(c2ccccc2)=NC1Nc1nnc(-c2ccc(-n3ccnc3)cc2)o1 (centres undefined) | – | > 6.40 |
| O=C1Nc2ccccc2C(c2ccccc2)=NC1Nc1nnc(-c2cccnc2N2C[C@H]3C[C@@H]2CO3)o1 (some centres undefined) | – | < 6.10 |
| COCCOc1ccc(C(=O)OC)cc1 | – | < 6.10 |
| O=C1Nc2ccccc2C(c2ccccc2)=NC1Nc1nnc(-c2ccccc2OC2CCOCC2)o1 (centres undefined) | – | < 6.10 |
| O=C1Nc2ccccc2C(c2ccccc2)=NC1Nc1nnc(-c2ccccc2N2CCCOCC2)o1 (centres undefined) | – | < 6.10 |
| Cc1ccc(-c2nnc(N[C@H]3N=C(c4ccccc4)c4ccccc4NC3=O)o2)c(N2CCOCC2)n1 | – | > 6.40 |
| O=C1Nc2ccccc2C(c2ccccc2)=N[C@@H]1Nc1nnc(-c2ncc(C(F)(F)F)cc2N2CC3CCC(C2)O3)o1 | – | > 6.40 |
| O=C1Nc2ccccc2C(c2ccccc2)=NC1Nc1nnc(-c2cccnc2N2CCCCC2)o1 (centres undefined) | – | < 6.10 |
| CN1CCN(c2ccccc2-c2nnc(NC3N=C(c4ccccc4)c4ccccc4NC3=O)o2)CC1 (centres undefined) | – | < 6.10 |
| O=C1Nc2ccccc2C(c2ccccc2)=NC1Nc1nnc(-c2ccc(OC3CCOCC3)cc2)o1 (centres undefined) | – | < 6.10 |
| O=C1Nc2ccccc2C(c2ccccc2)=NC1Nc1nnc(-c2ccccc2N2CCS(=O)(=O)CC2)o1 (centres undefined) | – | < 6.10 |
| O=C1Nc2ccccc2C(c2ccccc2)=NC1Nc1nnc(-c2ccc(-n3ccc(C(F)(F)F)n3)cc2)o1 (centres undefined) | – | < 6.10 |
| Cc1cc(-n2cncn2)ccc1-c1nnc(NC2N=C(c3ccccc3)c3ccccc3NC2=O)o1 (centres undefined) | – | < 6.10 |
| O=C1Nc2ccccc2C(c2ccccc2)=NC1Nc1nnc(-c2ccccc2NCc2ccccn2)o1 (centres undefined) | – | < 6.10 |
| CC(C)(O)c1nnc(NC2N=C(c3ccccc3)c3ccccc3NC2=O)o1 (centres undefined) | – | < 6.10 |
| Cc1nc(-c2nnc(NC3N=C(c4ccccc4)c4ccccc4NC3=O)o2)ccc1C#N (centres undefined) | in the range around 600 nM | – |
| C[C@H]1CN(c2cc(C(F)(F)F)cnc2-c2nnc(N[C@H]3N=C(c4ccccc4)c4ccccc4NC3=O)o2)CCO1 | – | > 6.40 |
| COC1CCN(c2ncccc2-c2nnc(NC3N=C(c4ccccc4)c4ccccc4NC3=O)o2)CC1 (centres undefined) | – | < 6.10 |

From ChEMBL document CHEMBL5729210, “Benzodiazepine derivatives as RSV inhibitors” (2022)
